{
  "source": "paper PMC3733398",
  "about": "(ACS medicinal chemistry letters, 2013)",
  "tested_on": "sensitive, MDR and XDR clinical Mtb strains",
  "format": "cell-based, Mycobacterium tuberculosis",
  "conditions": "panel of MDR and XDR drug resistant clinical Mtb strains",
  "data": [
    {"smiles": "Cc1ccn2c(C(=O)NCc3ccc(Oc4ccc(F)cc4)cc3)c(C)nc2c1", "note": "[Compound 18]", "values": [
      {"measurement": "potency surpassing that of PA-824", "result": "~10", "unit": "fold"}
    ]}
  ]
}
